Patent US11970452B2, “Modulators of mas-related G-protein receptor X2 and related products and methods” (Escient Pharmaceuticals, Inc., priority 2020, dated 2024)

Experiments:
human MRGPRX2 = target: T1, human MRGPRX2 (Homo sapiens, UniProt Q96LB1); experiment: MRGPRX2 activity: IP-One HTRF antagonist assay versus 0.3 uM Cortistatin 14; format: cell-based; conditions: CHO cells expressing human MRGPRX2; IP-1 HTRF; versus 0.3 uM Cortistatin 14 agonist; read-out: MRGPR2 Antagonist Activity
T1 construct: expressed in transfected cells
T1 sequence (Q96LB1 1-330): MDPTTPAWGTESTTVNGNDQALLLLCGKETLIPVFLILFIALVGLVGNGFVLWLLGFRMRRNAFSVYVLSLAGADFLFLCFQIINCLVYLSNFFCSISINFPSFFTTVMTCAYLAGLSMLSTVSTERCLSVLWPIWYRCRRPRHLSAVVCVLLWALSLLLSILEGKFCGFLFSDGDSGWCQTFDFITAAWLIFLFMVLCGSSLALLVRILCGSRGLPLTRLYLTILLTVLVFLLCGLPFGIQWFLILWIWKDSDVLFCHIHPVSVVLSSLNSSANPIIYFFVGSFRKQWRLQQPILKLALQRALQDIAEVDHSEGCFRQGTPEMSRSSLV
Description: CHO cells stably transfected to express human MRGPRX2 were maintained in an incubator at 37° C. with 5% CO2 and grown in F12 (HAM) media with 10% fetal bovine serum (FBS), 1% Glutamax, 1% penicillin/streptomycin, 800 μg/mL Geneticin (G418), and 300 μg/mL Hygromycin B.
Cells were plated in a […] assay plate at 20,000 cells per well in 12 μL of Opti-MEM and kept in an incubator overnight. On the day of the assay, compounds solubilized at 10 mM in DMSO were added as a 10-point curve (30 uM final top concentration with 1:3 serial dilutions) using a Tecan D300E digital dispenser. Agonists were diluted in assay buffer (final concentrations of 5.7 mM Tris-HCl, 43 mM NaCl, 50 mM LiCl, pH=8) and 2 μL of the agonist Cortistatin 14 (CPC Scientific, catalog CORT-002) are added to each well. Final concentrations of agonists were 0.3 μM Cortistatin. Final concentrations of DMSO were kept consistent across the plate. Plates were incubated in the dark for 1 h at 37° C. and then for 1 h at room temperature. IP-1 standards and HTRF detection reagents were added according to the IP-One-Gq Kit purchased from Cisbio (part number 62IPAPEJ) and incubated in the dark for 1 h at room temperature. The plate was read on a Molecular Devices SpectraMax iD5 plate reader. The HTRF ratio was calculated from the raw data and graphed using GraphPad Prism to calculate an IC50 value for each compound.
(§1) The activity ranges are denoted as follows: “+++++” denotes antagonist activity <100 nM; “++++” denotes antagonist activity between 100 and 500 nM; “+++” denotes activity between 501 and 1000 nM; “++” denotes activity between 1001 and 2500 nM; and “+” denotes activity >2500 nM

Human LAD2 cells = experiment: Mast Cell Beta-Hexosaminidase Release Assay (versus 500 nM Cortistatin-14); format: cell-based; conditions: 500 nM Cortistatin-14 agonist, read-out: MRGPR2 Antagonist Activity
Description: Human LAD2 cells (NIH) were maintained in an incubator at 37° C. with 5% CO2 and cultured in StemPro-34 serum-free media (Gibco 10639011) supplemented with 2 mM L-glutamine, 100 U/ml penicillin, […] streptomycin and 100 ng/ml SCF (Invitrogen PEP0860), at a concentration of 2-5×10^5 cells/mL, with hemidepletion every 1-2 weeks.
Cells were transferred to SCF-Free medium at 2.5×10^5 cells/mL and kept in an incubator overnight. On the day of the assay, cells were washed twice in Assay Buffer (final concentrations 10 mM HEPES, 137 mM NaCl, 5.6 mM D-glucose, 2.7 mM KCl, 1 mM MgCl, 1.8 mM CaCl2, 0.4 mM Na2HPO4.7H2O, 0.04% BSA, pH=7.4) and plated in a 96-well v-bottom plate at 20,000 cells per well in 80 μL Assay Buffer. Antagonist compounds solubilized at 10 mM in DMSO were diluted in Assay Buffer to 10× final desired concentrations as a 10-point curve (10 μM final top concentration with 1:3 serial dilutions) and 10 μL added per well. Plates were then incubated for 1 hour at 37° C. Agonists were diluted in Assay Buffer to 10× desired concentrations and 10 μL of the appropriate agonist added to each well. The final concentration of Cortistatin-14 (Tocris 3374) used in antagonist assays was 500 nM. Final concentrations of DMSO were kept consistent across the plate. Plates were then incubated in a warm air oven for 30 minutes at 37° C., followed by centrifugation at 4° C. for 5 minutes at 450×g. 50 μL supernatant from each well was then transferred to a 96-well flat bottom plate containing 100 μL substrate solution per well (3.5 mg/mL p-Nitrophenyl-N-acetyl-β-D-glucosaminide (Sigma 487052) in Citrate Buffer containing a final concentration of 40 mM Citric Acid, 20 mM Na2HPO4.7H2O, pH=4.5). To the cell pellets left in the remaining assay buffer, 150 μL 0.1% Triton-X-100 was then added to each well, resuspended by pipetting up and down, and 50 μL cell lysates transferred to a second 96-well flat bottom plate containing 100 μL substrate solution per well. Plates containing transferred supernatant and cell lysates were then incubated in a warm air oven for 90 minutes at 37° C. After incubation, 50 μL of 400 mM Glycine buffer (pH 10.7) was added into each well and the plate was read on a Molecular Devices SpectraMax iD5 plate reader (absorbance at 405 nm with reference filter at 620 nm). After background subtraction, the percentage degranulation (percent beta-hexosaminidase release) was calculated as 100×(supernatant values)/(supernatant+lysate values), followed by analysis using GraphPad Prism software to calculate an IC50 value for each compound.
as §1

O=C(N[C@H]1CC[C@@H](Nc2cc(C(F)(F)F)nc3ccccc23)CC1)c1ccccc1 [3-30]
IC50 (human MRGPRX2): 100 to 500 nM
IC50 (Human LAD2 cells): 501 to 1000 nM

CC(=O)Nc1cccc(C(=O)N[C@H]2CC[C@@H](Nc3cc(C(F)(F)F)nc4ccc(Cl)cc34)CC2)c1 [4-7]
IC50 (human MRGPRX2): < 100 nM
IC50 (Human LAD2 cells): 100 to 500 nM

CN(C)c1ccc(C(=O)N[C@H]2CC[C@@H](Nc3cc(C(F)(F)F)nc4ccccc34)CC2)cc1 [3-25]
IC50 (human MRGPRX2): 100 to 500 nM
IC50 (Human LAD2 cells): 100 to 500 nM

CNc1ccc(C(=O)N[C@H]2CC[C@@H](Nc3cc(C(F)(F)F)nc4ccc(Cl)cc34)CC2)cc1 [4-9]
IC50 (Human LAD2 cells): < 100 nM

O=C(N[C@H]1CC[C@@H](Nc2cc(C(F)(F)F)nc3ccccc23)CC1)c1ccc(Cl)cc1 [3-10]
IC50 (Human LAD2 cells): 100 to 500 nM

O=C(N[C@H]1CC[C@@H](Nc2cc(C(F)(F)F)nc3ccc(Cl)cc23)CC1)c1ccnc2[nH]ccc12 [4-139]
IC50 (Human LAD2 cells): < 100 nM

O=C(N[C@H]1CC[C@@H](Nc2cc(C(F)(F)F)nc3ccc(F)cc23)CC1)c1ccc(F)cc1 [1-4, 4-fluoro-N-[(1s,4s)-4-{[6-fluoro-2-(trifluoromethyl)quinolin-4-yl]amino}cyclohexyl]benzamide]
IC50 (Human LAD2 cells): 100 to 500 nM
